Test results reported in ChEMBL document CHEMBL3507680, “University of Dundee, Gates Library screen for HepG2 cell viability”.

Test: Human HepG2 cell viability assay in 384 well format
Format: toxicity, cell-based
Parameters: dose 125 nL, time 70.5 hour; concentration not given beside the values
Conditions: HepG2 cells, read-out: Inhibition

| SMILES | cytotoxicity at 70.5 h |
| --- | --- |
| Cc1ccn(-c2ccccc2NCc2cccnc2C)n1 | -7.82% |
| COCC1CN(CC2CC2)Cc2ncn(CC3CC3)c21 (stereo not given) | 2.41% |
| Cc1cccc(-c2nc3cc(S(=O)(=O)N4CCCC4)ccc3n2C)n1 | -10.3% |
| CC(=O)c1cccc(OCC(=O)N(CC(C)C)C2CCN(C)CC2)c1 | 10.2% |
| Cc1ccc(CN2CCC(c3nnc(CN4CCCCC4)n3C)CC2)o1 | -5.72% |
| COCC(=O)N1CCC2(CCN(c3cnn(C)c3)C2=O)C1 (stereo not given) | 34.5% |
| CC(=O)NCC(=O)N1CCCC1c1ccc(CN2CCOCC2)cn1 (stereo not given) | -4.76% |
| Cc1nccc(N[C@H]2CN(CCC(=O)NC3CCCC3)C[C@@H]2C2CC2)n1 | -2.83% |
| O=c1ncn(-c2ccc(F)cc2)c2ncccc12 | -6.86% |
| CCOC1CC2(CCN(CCO)CC2)c2ccc(C)cc21 (stereo not given) | 1.71% |
| CCN1CC(C(=O)NC(C)(C)CC(C)(C)C)CC1=O (stereo not given) | -1.71% |
| Cc1cnn(CCNCc2csc(-c3ccc(F)cc3)n2)c1 | 3.66% |
| COc1ccccc1C(NC(=O)C1CCC1)c1noc(C)n1 (stereo not given) | -5.9% |
| Fc1ccc(-c2nnc(CN3CCCC3Cn3cncn3)o2)cc1 (stereo not given) | -8.54% |
| CN(C(=O)Cc1ccc(NC(=O)NC2CCC2)cc1)c1ccccc1 | 38.2% |
| Cc1c2ncn(CC(=O)c3ccccc3)c(=O)c2nn1C | -3.76% |
| O=C(NCCCn1nc2ccccn2c1=O)Nc1ccccc1Cl | 0.153% |
| N#Cc1cccc(S(=O)(=O)N2CCCCC2C(N)=O)c1 (stereo not given) | -3.12% |
| COc1ccc(CCNC(=O)c2ccc(=O)n(C)c2)c(Cl)c1 | -7.56% |
| O=C(c1cccc(F)c1)N1CCOC(c2nc(-c3ncccn3)no2)C1 (stereo not given) | -5.4% |
| CN1CC2(CCN(CC3CC3)CC2)COc2ccccc2S1(=O)=O | -1.33% |
| CCn1cc(NC(=O)C2CCN(Cc3noc(C(C)C)n3)CC2)cn1 | 0.996% |
| O=C(c1n[nH]c(=O)c2ccccc12)N1CCC(O)(CN2CCOCC2)C1 (stereo not given) | 14.5% |

| SMILES | cytotoxicity at 70.5 h |
| --- | --- |
| Cc1cccc(CN2CCOC3(COCCN(CCN(C)C)C3)C2)n1 (stereo not given) | -3.04% |
| CCOc1ncccc1C(=O)Nc1c(C)cnn1CC1CC1 | -9.45% |
| Cc1nc(C(C)C)sc1C(=O)N1CCN(C2CN3CCC2CC3)CC1 (stereo not given) | -6.54% |
| O=C(Nc1ccccc1OCc1ccccn1)NC1CCOCC1 | -8.37% |
| COCc1nc(C(=O)N2CCCC2c2cccs2)cs1 (stereo not given) | -7.86% |
| Cc1noc(C)c1CN1C[C@@H]2CCCO[C@@H]2[C@H](Nc2ccccn2)C1 | -4.07% |
| CSc1ccc(-c2nc(CN3CCCC(CNC(C)=O)C3)c(C)o2)cc1 (stereo not given) | -3.75% |
| O=C(CCCc1ccccn1)NCC(O)c1ccccc1Cl (stereo not given) | 3.77% |
| Cc1nc(CN2CCc3nc(N4CCCC4)nc(NC(C)C)c3C2)cs1 | -3.99% |
| COCC(=O)N[C@H](C)c1onc(-c2ccc(F)cc2)c1C(=O)O | -6.83% |
| CN(C)C(=O)C1CN(Cc2cccs2)CCN(S(C)(=O)=O)C1 (stereo not given) | -5.12% |
| Cc1cc(C(F)(F)F)nc(CCNC(C)Cn2cncn2)n1 (stereo not given) | -11.4% |
| CCOc1ccc(CNC(C)c2ccc3[nH]c(=O)[nH]c3c2)cc1 (stereo not given) | 1.32% |
| Cc1cnn(C2CN(CC(O)c3ccccc3)C2)c1 (stereo not given) | 27.4% |
| Cn1cc(CNC2CCc3c(ccc(=O)n3C)C2)cn1 (stereo not given) | -2.72% |
| CC(C)(C)c1ncc2c(n1)CN(C(=O)C(C)(C)n1cccc1)C2 | -6.39% |
| Cc1cc(C(=O)N2CC[C@H](OCC3CC3)[C@@H]2Cc2cccnc2)no1 | -4.43% |
| CC(C)CC(NC(=O)Nc1ccc(F)c(Cl)c1)C(=O)O (stereo not given) | -8.78% |
| CC(C)C(C(=O)N1CCN(c2ccncc2)CC1)n1cncn1 (stereo not given) | -7.42% |
| Cn1cc(CN2C[C@@H]3CCCO[C@@H]3[C@H](NC(=O)CC3CC3)C2)cn1 | 11.8% |
| CC(NC(=O)Nc1ccc(OC2CCCC2)cc1)c1nc[nH]n1 (stereo not given) | 12.8% |
| O=C1c2cnc(N3CCOCC3)nc2CN1Cc1cccc(F)c1 | -6.18% |
